Measurements: patent publication US9585877B2, “Methods of maintaining, treating or improving cognitive function” (Forum Pharmaceuticals, Inc., priority 2012, dated 2017)

Experiments:
Assay type in all cases: in vivo, human
[1] = tested on: subjects with mild-to-moderate Alzheimer's disease; assay: Clinical study, Cognition composite score
Experimental: (§1) A double-blind study of 3 doses of the Test Composition or placebo in subjects with mild-to-moderate Alzheimer's disease, with or without receiving a concomitant AChEI for 24 weeks (168 days) after a 7 day placebo run-in period.
(§2) Subjects with mild to moderate Alzheimer's disease receiving stable treatment with an AChEI (donepezil or rivastigmine: ‘add-on’ subjects) or not receiving an AChEI (de novo subjects′) received 0.3, 1, or 2 mg doses of Test Composition or placebo for up to 24 weeks (168 days) of double-blind treatment, after a 7-day single-blind, placebo run-in period to assess study drug compliance. A follow-up telephone contact was conducted approximately 15 days after the last dose of study drug for questions regarding safety.
(§3) These analyses were prespecified in the analytical plan (ITT population), and included the following: Cognition composite score (ADAS-cog Word Recall, Word Recognition, & Orientation, and COWAT and CFT), Memory composite score (ADAS-cog Word Recall, Word Recognition, and Orientation), and Executive Function composite score (COWAT and CFT).
(§4) Composite Scores—Three composite scores were calculated: (1) Composite Cognition Score (ADAS-cog Word Recall, Word Recognition, and Orientation, COWAT and CFT); (2) Memory Composite Score (ADAS-cog Word Recall, Word Recognition, and Orientation); and (3) Executive Function Composite Score (COWAT and CFT).
(§5) The composite score is only computed when all test scores are available.

[2] = tested on: subjects with mild-to-moderate Alzheimer's disease; assay: Clinical study, ADCS-ADL
Experimental: as §1
(§6) Total number of subjects in the safety population was 409 subjects that were dosed once-daily with a dosing-capsule for a period of 168 days. The subjects dosed, and the particular dosing, included: 104 subjects dosed with Placebo capsule; and 305 subjects dosed with Test Compound (104 subjects with 0.3 mg capsules; 101 subjects with 1 mg capsules; and 100 subjects with 2 mg capsules).
(§7) The population included generally healthy male or female subjects, aged 50 to ≦85 years, with mild-to-moderate Alzheimer's disease, consistent with criteria defined by a Work Group of the National Institute of Neurological and Communicative Disorders and Stroke—Alzheimer's Disease and Related Disorders Association, of mild to moderate severity, with a Mini-Mental State Examination score (MMSE) 14 and ≦24, and a Clinical Dementia Rating Scale Sum of the Boxes (CDR-SB) score of 2. […] Subjects were required to be either receiving a stable dose of an AChEI (donepezil or rivastigmine) for at least 3 months before screening or not presently being treated with an AChEI or mementine for at least 30 days.
as §2
Alzheimer's Disease Cooperative Study Group-Activities of Daily Living Scale (ADCS-ADL, or sometimes referred to as ADCS-ADL-23):
The ADCS-ADL-23 test employed herein is based on the procedure developed by Galasko D, Bennett D, Sano M, et al., Alz Dis Assoc Disord (1997) 11(2): S33-S39.
The ADCS-ADL test assesses the actual performance of specific actions and behaviors by a patient as observed by a caregiver/informant.

[3] = tested on: subjects with mild-to-moderate Alzheimer's disease; assay: Clinical study, ADAS-Cog-11
Experimental: as §1, §6, §7, §2
Cognitive Part of the Alzheimer's Disease Assessment Scale (ADAS-Cog-11)
The ADAS-cog-11 test employed herein is based on the procedure developed in the adapted version of the Administration and Scoring Manual for the Alzheimer's Disease Assessment Scale, 1994 Revised Edition, Richard C. Mohs, Ph.D., © 1994 by The Mount Sinai School of Medicine, manual modified by Donald Connor, Ph.D., and Kimberly Schafer, M.S. (3/98).
The ADAS-cog-11 test includes the following test items: (1) Word Recall, (2) Naming Objects/Fingers, (3) Commands, (4) Construction Praxis, (5) Ideational Praxis, (6) Orientation, (7) Word Recognition, (8) Remembering Test Instructions, (9) Spoken Language Ability, (10) Word Finding Difficulty, and (11) Comprehension.
The ADAS-cog-11 total score ranges from 0 to 70 (higher scores indicate more severe impairment). A decrease from baseline indicates improvement.

[4] = tested on: subjects with mild-to-moderate Alzheimer's disease; assay: Clinical study, Executive Function composite score; settings: for Executive function composite score Effect Size: over a 23 week period
Experimental: as §1, §2, §3, §4, §5

[5] = tested on: subjects with mild-to-moderate Alzheimer's disease; assay: Clinical study, Memory composite score
Experimental: as §1, §2, §3, §4, §5

[6] = 2 mg versus placebo, over a 23 week period

Cl.O.O=C(N[C@H]1CN2CCC1CC2)c1cc2cccc(Cl)c2s1 [Test Compound, (R)-7-chloro-N-(quinuclidin-3-yl)benzo[b]thiophene-2-carboxamide, hydrochloride, monohydrate]
Cognition Composite Score (Baseline was assigned the value of zero @ Week 0) ([1]; 0.3 mg daily dose, Week 4): 0.0036
Cognition Composite Score (Baseline was assigned the value of zero @ Week 0) ([1]; 0.3 mg daily dose, Week 12): 0.0171
Cognition Composite Score (Baseline was assigned the value of zero @ Week 0) ([1]; 0.3 mg daily dose, Week 18): −0.0245
Cognition Composite Score (Baseline was assigned the value of zero @ Week 0) ([1]; 0.3 mg daily dose, Week 23): −0.0451
Cognition Composite Score (Baseline was assigned the value of zero @ Week 0) ([1]; 1 mg daily dose, Week 4): 0.0042
Cognition Composite Score (Baseline was assigned the value of zero @ Week 0) ([1]; 1 mg daily dose, Week 12): 0.0804
Cognition Composite Score (Baseline was assigned the value of zero @ Week 0) ([1]; 1 mg daily dose, Week 18): −0.0102
Cognition Composite Score (Baseline was assigned the value of zero @ Week 0) ([1]; 1 mg daily dose, Week 23): 0.0287
Cognition Composite Score (Baseline was assigned the value of zero @ Week 0) ([1]; 2 mg daily dose, Week 4): −0.0084
Cognition Composite Score (Baseline was assigned the value of zero @ Week 0) ([1]; 2 mg daily dose, Week 12): 0.0513
Cognition Composite Score (Baseline was assigned the value of zero @ Week 0) ([1]; 2 mg daily dose, Week 18): 0.0915
Cognition Composite Score (Baseline was assigned the value of zero @ Week 0) ([1]; 2 mg daily dose, Week 23): 0.1276
Cognition composite score Effect Size [1, 6]: 0.42
ADCS-ADL (Baseline was assigned the value of zero @ Week 0) ([2]; 0.3 mg daily dose, Week 4): 0.07926
ADCS-ADL (Baseline was assigned the value of zero @ Week 0) ([2]; 0.3 mg daily dose, Week 12): −0.5757
ADCS-ADL (Baseline was assigned the value of zero @ Week 0) ([2]; 0.3 mg daily dose, Week 18): −0.6255
ADCS-ADL (Baseline was assigned the value of zero @ Week 0) ([2]; 0.3 mg daily dose, Week 23): −1.8992
ADCS-ADL (Baseline was assigned the value of zero @ Week 0) ([2]; 1 mg daily dose, Week 4): 0.509
ADCS-ADL (Baseline was assigned the value of zero @ Week 0) ([2]; 1 mg daily dose, Week 12): 0.9138
ADCS-ADL (Baseline was assigned the value of zero @ Week 0) ([2]; 1 mg daily dose, Week 18): 0.8306
ADCS-ADL (Baseline was assigned the value of zero @ Week 0) ([2]; 1 mg daily dose, Week 23): −0.3467
ADCS-ADL (Baseline was assigned the value of zero @ Week 0) ([2]; 2 mg daily dose, Week 4): 0.908
ADCS-ADL (Baseline was assigned the value of zero @ Week 0) ([2]; 2 mg daily dose, Week 12): 0.8426
ADCS-ADL (Baseline was assigned the value of zero @ Week 0) ([2]; 2 mg daily dose, Week 18): 0.8097
ADCS-ADL (Baseline was assigned the value of zero @ Week 0) ([2]; 2 mg daily dose, Week 23): 0.3166
ADCS-ADL Effect Size ([2]; 2 mg dose versus Placebo): 0.20
ADAS-Cog-11 (Baseline was assigned the value of zero @ Week 0) ([3]; 0.3 mg daily dose, Week 4): −0.3534
ADAS-Cog-11 (Baseline was assigned the value of zero @ Week 0) ([3]; 0.3 mg daily dose, Week 12): −0.2129
ADAS-Cog-11 (Baseline was assigned the value of zero @ Week 0) ([3]; 0.3 mg daily dose, Week 18): −0.067
ADAS-Cog-11 (Baseline was assigned the value of zero @ Week 0) ([3]; 0.3 mg daily dose, Week 23): 0.2755
ADAS-Cog-11 (Baseline was assigned the value of zero @ Week 0) ([3]; 1 mg daily dose, Week 4): −0.3412
ADAS-Cog-11 (Baseline was assigned the value of zero @ Week 0) ([3]; 1 mg daily dose, Week 12): −0.8317
ADAS-Cog-11 (Baseline was assigned the value of zero @ Week 0) ([3]; 1 mg daily dose, Week 18): 0.1063
ADAS-Cog-11 (Baseline was assigned the value of zero @ Week 0) ([3]; 1 mg daily dose, Week 23): 0.3534
ADAS-Cog-11 (Baseline was assigned the value of zero @ Week 0) ([3]; 2 mg daily dose, Week 4): −0.0031
ADAS-Cog-11 (Baseline was assigned the value of zero @ Week 0) ([3]; 2 mg daily dose, Week 12): −0.998
ADAS-Cog-11 (Baseline was assigned the value of zero @ Week 0) ([3]; 2 mg daily dose, Week 18): −1.1519
ADAS-Cog-11 (Baseline was assigned the value of zero @ Week 0) ([3]; 2 mg daily dose, Week 23): −1.1188
ADAS-Cog 11 Effect Size ([3]; 2 mg dose versus Placebo): 0.34
Executive Function Composite Score (Baseline was assigned the value of zero @ Week 0) ([4]; 0.3 mg daily dose, Week 4): 0.0074
Executive Function Composite Score (Baseline was assigned the value of zero @ Week 0) ([4]; 0.3 mg daily dose, Week 12): 0.0391
Executive Function Composite Score (Baseline was assigned the value of zero @ Week 0) ([4]; 0.3 mg daily dose, Week 18): −0.0224
Executive Function Composite Score (Baseline was assigned the value of zero @ Week 0) ([4]; 0.3 mg daily dose, Week 23): −0.0153
Executive Function Composite Score (Baseline was assigned the value of zero @ Week 0) ([4]; 1 mg daily dose, Week 4): 0.0202
Executive Function Composite Score (Baseline was assigned the value of zero @ Week 0) ([4]; 1 mg daily dose, Week 12): 0.0609
Executive Function Composite Score (Baseline was assigned the value of zero @ Week 0) ([4]; 1 mg daily dose, Week 18): 0.0418
Executive Function Composite Score (Baseline was assigned the value of zero @ Week 0) ([4]; 1 mg daily dose, Week 23): 0.0476
Executive function composite score Effect Size ([4]; 1 mg versus placebo): 0.32
Executive Function Composite Score (Baseline was assigned the value of zero @ Week 0) ([4]; 2 mg daily dose, Week 4): −0.0311
Executive Function Composite Score (Baseline was assigned the value of zero @ Week 0) ([4]; 2 mg daily dose, Week 12): −0.0452
Executive Function Composite Score (Baseline was assigned the value of zero @ Week 0) ([4]; 2 mg daily dose, Week 18): 0.0188
Executive Function Composite Score (Baseline was assigned the value of zero @ Week 0) ([4]; 2 mg daily dose, Week 23): 0.0244
Executive function composite score Effect Size ([4]; 2 mg versus placebo): 0.27
Memory Composite Score (Baseline was assigned the value of zero @ Week 0) ([5]; 0.3 mg daily dose, Week 4): −0.0084
Memory Composite Score (Baseline was assigned the value of zero @ Week 0) ([5]; 0.3 mg daily dose, Week 12): −0.0108
Memory Composite Score (Baseline was assigned the value of zero @ Week 0) ([5]; 0.3 mg daily dose, Week 18): −0.0294
Memory Composite Score (Baseline was assigned the value of zero @ Week 0) ([5]; 0.3 mg daily dose, Week 23): −0.0645
Memory Composite Score (Baseline was assigned the value of zero @ Week 0) ([5]; 1 mg daily dose, Week 4): −0.0062
Memory Composite Score (Baseline was assigned the value of zero @ Week 0) ([5]; 1 mg daily dose, Week 12): 0.08
Memory Composite Score (Baseline was assigned the value of zero @ Week 0) ([5]; 1 mg daily dose, Week 18): −0.0456
Memory Composite Score (Baseline was assigned the value of zero @ Week 0) ([5]; 1 mg daily dose, Week 23): 0.0113
Memory Composite Score (Baseline was assigned the value of zero @ Week 0) ([5]; 2 mg daily dose, Week 4): −0.0032
Memory Composite Score (Baseline was assigned the value of zero @ Week 0) ([5]; 2 mg daily dose, Week 12): 0.1021
Memory Composite Score (Baseline was assigned the value of zero @ Week 0) ([5]; 2 mg daily dose, Week 18): 0.117
Memory Composite Score (Baseline was assigned the value of zero @ Week 0) ([5]; 2 mg daily dose, Week 23): 0.169
Memory composite score Effect Size [5, 6]: 0.37
